Laboratory results as given in patent publication US6482423B1, “Antimicrobial wipes which provide improved residual benefit versus gram positive bacteria” (The Procter & Gamble Company, priority 1999, dated 2002).

Test system: Vibrio fischerio
Assay: Microtox Response Test (bioluminescence of Microtox Acute Toxicity Reagent)
Format: cell-based
Conditions: pure anionic surfactant; index from EC50 Value (ppm) decreasing bioluminescence by 50%, 5 minutes
Text: The biological activity/mildness of a pure surfactant can measured directly via a Microtox Response Test hereinafter described in the Analytical Methods section and can be reported as a Microtox Response Index. By “pure surfactant” it is meant a chemical composition consisting essentially of a single surfactant entity, wherein the entity has essentially one chain length, head group and salt counter ion. From a standpoint of high biological activity, preferred anionic surfactants of the antimicrobial cleansing compositions of the present invention have a Microtox Response Index of less that about 150, more preferably less than about 100 and most preferably less than about 50. […]
For surfactant compositions which are mixtures of surfactants rather than pure surfactants (this includes “commercial grade” surfactants which typically comprise mixtures of entities with different chain lengths and potentially have higher levels of impurities), the Microtox Response Index for any individual surfactant component is not a reliable measurement of biological activity or mildness. In the case of mixtures, the Microtox Index of each individual component can be determined and the weighted average used as the Index for the mixture if all the individual components of the mixture are known. […]

Row | Compound | Microtox Index
1 | CCCCCCCCCCCCOS(=O)(=O)O.N [ALS, ammonium lauryl sulfate] | 1.0
2 | ammonium laureth-3 sulfate | 120
